The text below walks through data of patent publication US20080171737A1 (Wyeth, priority 2006, published 2008).

pIC50: −log10 of the molar value. Where a name gives a salt, the structure may show the parent alone.

In general, pIC50 refers to −log10 of the IC50, conventionally taken in molar units. Usually inhibition stands for the percentage by which the read-out fell short of the control.

T1 sequence (P23975 whole entry): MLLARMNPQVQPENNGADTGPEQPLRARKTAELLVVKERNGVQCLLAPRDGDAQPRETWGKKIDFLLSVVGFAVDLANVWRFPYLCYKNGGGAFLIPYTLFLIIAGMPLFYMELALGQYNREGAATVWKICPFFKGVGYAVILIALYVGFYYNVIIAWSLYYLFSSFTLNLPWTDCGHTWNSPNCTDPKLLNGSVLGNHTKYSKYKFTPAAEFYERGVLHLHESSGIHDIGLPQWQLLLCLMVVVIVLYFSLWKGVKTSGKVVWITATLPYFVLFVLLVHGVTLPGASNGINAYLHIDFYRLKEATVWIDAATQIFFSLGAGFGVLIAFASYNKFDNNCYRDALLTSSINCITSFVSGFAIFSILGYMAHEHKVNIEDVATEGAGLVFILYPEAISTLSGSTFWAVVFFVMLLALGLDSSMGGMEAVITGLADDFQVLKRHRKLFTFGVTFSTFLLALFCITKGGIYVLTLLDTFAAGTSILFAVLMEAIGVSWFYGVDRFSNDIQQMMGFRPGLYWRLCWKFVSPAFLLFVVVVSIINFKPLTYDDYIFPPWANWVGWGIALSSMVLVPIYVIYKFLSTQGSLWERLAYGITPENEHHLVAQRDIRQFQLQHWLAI

The first assay has as its target T1, human hNET (Homo sapiens, UniProt P23975).
T1 construct: expressed in transfected cells; host or cells: MDCK-Net6 (MDCK cells stably transfected with hNET)
Put plainly: Functional norepinephrine reuptake assay, Procedure B (6,000 cells/well). It counts as cell-based. The note with it: MDCK-Net6 cells, 6,000 cells/well, 16 nM 3H-norepinephrine; read-out: Procedure B hNET uptake IC50. In a few lines: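 MDCK cells stably expressing human NET, 6,000 cells/well, in HEPES-buffered saline pH 7.4 with ascorbic acid and 1 μM pargyline; compound preincubated 5 min at 37° C. ^3H norepinephrine uptake counted by scintillation; non-specific defined with 20 μM desipramine. IC50 from variable-slope sigmoidal nonlinear fit.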
For `CN(CCCC1Oc2ccccc2N(c2ccccc2)S1(=O)=O)C1CCCCC1` (centres unmarked) [Example 85, N-[3-(2,2-dioxido-1-phenyl-1H-4,2,1-benzoxathiazin-3-yl)propyl]-N-methylcyclo hexanamine Hydrochloride], the negative-log IC50 (pIC50) was 5.72.

Consider `CNCCCC1Cc2ccccc2N(c2ccccc2F)S1(=O)=O` (centres unmarked) [Example 89, 3-[1-(2-fluorophenyl)-2,2-dioxido-3,4-dihydro-1H-2,1-benzothiazin-3-yl]-N-methylpropan-1-amine], for which the negative-log IC50 (pIC50) was 7.74.

For the compound `CNCCCC1Oc2ccccc2N(c2ccccc2F)S1(=O)=O` (centres unmarked) [Example 92], the pIC50 is 7.72.

For the compound `CNCCCC1Cc2cc(F)ccc2N(c2ccccc2F)S1(=O)=O` (centres unmarked) [Example 108, 3-[6-fluoro-1-(2-fluorophenyl)-2,2-dioxido-3,4-dihydro-1H-2,1-benzothiazin-3-yl]-N-methylpropan-1-amine], the pIC50 is 7.62.

`CNCCCC1Oc2cc(F)ccc2N(c2ccccc2F)S1(=O)=O` (centres unmarked) [Example 129, 3-[6-fluoro-1-(2-fluorophenyl)-2,2-dioxido-1H-4,2,1-benzoxathiazin-3-yl]-N-methylpropan-1-amine hydrochloride]: the pIC50 is 7.02.

As to `C=C(CNC)CC1Cc2ccccc2N(c2ccccc2)S1(=O)=O` (centres unmarked) [Example 132, 2-[(2,2-dioxido-1-phenyl-3,4-dihydro-1H-2,1-benzothiazin-3-yl)methyl]-N-methylprop-2-en-1-amine], the negative-log IC50 (pIC50) was 7.80.

Turning to `CN(C)CC1Oc2ccccc2N(c2ccccc2)S1(=O)=O` (centres unmarked) [Example 134, 1-(2,2-dioxido-1-phenyl-1H-4,2,1-benzoxathiazin-3-yl)-N,N-dimethylmethanamine], the pIC50 is 6.10.

`O=S1(=O)C(CN2CCNCC2)Oc2ccccc2N1c1ccccc1` (centres unmarked) [Example 135, 1-phenyl-3-(piperazin-1-ylmethyl)-1H-4,2,1-benzoxathiazine 2,2-dioxide]: the pIC50 was 6.78.

For the compound `CCNCC1Oc2ccccc2N(c2ccccc2)S1(=O)=O` (centres unmarked) [Example 136, N-[(2,2-dioxido-1-phenyl-1H-4,2,1-benzoxathiazin-3-yl)methyl]ethanamine], the pIC50 was 5.87.

As to `NCCNCC1Oc2ccccc2N(c2ccccc2)S1(=O)=O` (centres unmarked) [Example 137, N-[(2,2-dioxido-1-phenyl-1H-4,2,1-benzoxathiazin-3-yl)methyl]ethane-1,2-diamine], the pIC50 is 6.71.

`CN(C)CCNCC1Oc2ccccc2N(c2ccccc2)S1(=O)=O` (centres unmarked) [Example 138, N′-[(2,2-dioxido-1-phenyl-1H-4,2,1-benzoxathiazin-3-yl)methyl]-N,N-dimethylethane-1,2-diamine]: the negative-log IC50 (pIC50) was 5.43.

Turning to `CNCCN(C)CC1Oc2ccccc2N(c2ccccc2)S1(=O)=O` (centres unmarked) [Example 139, N-[(2,2-dioxido-1-phenyl-1H-4,2,1-benzoxathiazin-3-yl)methyl]-N,N′-dimethylethane-1,2-diamine], the pIC50 is 6.19.

Consider `CN(C)CCN(C)CC1Oc2ccccc2N(c2ccccc2)S1(=O)=O` (centres unmarked) [Example 140, N-[(2,2-dioxido-1-phenyl-1H-4,2,1-benzoxathiazin-3-yl)methyl]-N,N′,N′-trimethylethane-1,2-diamine], for which the negative-log IC50 (pIC50) is 5.36.

As for `CC1CN(CC2Oc3ccccc3N(c3ccccc3)S2(=O)=O)CC(C)N1` (centres unmarked) [Example 142, 3-[(3,5-dimethylpiperazin-1-yl)methyl]-1-phenyl-1H-4,2,1-benzoxathiazine 2,2-dioxide], the pIC50 was 5.94.

Consider `O=S1(=O)C(CN2CC3CC2CN3)Oc2ccccc2N1c1ccccc1` (centres unmarked) [Example 143, 3-(2,5-diazabicyclo[2.2.1]hept-2-ylmethyl)-1-phenyl-1H-4,2,1-benzoxathiazine 2,2-dioxide], for which the pIC50 was 6.64.

Take `CNCCCC1Cc2cc(Cl)ccc2N(c2ccccc2F)S1(=O)=O` (centres unmarked) [Example 175, 3-[6-chloro-1-(2-fluorophenyl)-2,2-dioxido-3,4-dihydro-1H-2,1-benzothiazin-3-yl]-N-methylpropan-1-amine]: the negative-log IC50 (pIC50) was 7.38.

Still in this assay, the particulars now being: MDCK-Net6 cells, 6,000 cells/well; Conc 6000 nM (6 μM); hydrochloride.
As to `CN1CCN(CCC2Oc3ccccc3N(c3ccccc3)S2(=O)=O)CC1` (centres unmarked) [Example 87, 3-[2-(4-Methyl-piperazin-1-yl)-ethyl]-1-phenyl-1H-benzo[1,3,4]oxathiazine 2,2-dioxide hydrochloride], the “Procedure B hNET uptake (% inhibition)” value was determined as 35%.

The assay is the same for the next values; noted with them: MDCK-Net6 cells, 6,000 cells/well; Conc 6000 nM (6 μM); read-out: Procedure B hNET uptake (% inhibition).
In the case of `CCN(C)CCCC1Oc2ccccc2N(c2ccccc2)S1(=O)=O` (centres unmarked) [Example 81, 3-(2,2-dioxido-1-phenyl-1H-4,2,1-benzoxathiazin-3-yl)-N-ethyl-N-methylpropan-1-amine hydrochloride], the inhibition at 6 µM turned out to be 27%.

Consider `CCN(CC)CCCC1Oc2ccccc2N(c2ccccc2)S1(=O)=O` (centres unmarked) [Example 82, 3-(2,2-dioxido-1-phenyl-1H-4,2,1-benzoxathiazin-3-yl)-N,N-diethylpropan-1-amine hydrochloride], for which the inhibition at 6 µM came out at 47%.

Regarding `CCN(CCO)CCCC1Oc2ccccc2N(c2ccccc2)S1(=O)=O` (centres unmarked) [Example 83, 2-{[3-(2,2-dioxido-1-phenyl-1H-4,2,1-benzoxathiazin-3-yl)propyl](ethyl)amino}ethanol hydrochloride], the inhibition at 6 µM came to 41%.

Turning to `CC(C)N(C)CCCC1Oc2ccccc2N(c2ccccc2)S1(=O)=O` (centres unmarked) [Example 84, 3-(2,2-dioxido-1-phenyl-1H-4,2,1-benzoxathiazin-3-yl)-N-isopropyl-N-methylpropan-1-amine Hydrochloride], the inhibition at 6 µM was 27%.

As to `CN(CCCC1Oc2ccccc2N(c2ccccc2)S1(=O)=O)C1CCCCC1` (centres unmarked) [Example 85, N-[3-(2,2-dioxido-1-phenyl-1H-4,2,1-benzoxathiazin-3-yl)propyl]-N-methylcyclo hexanamine Hydrochloride], the inhibition at 6 µM came out at 62%.

In the case of `CN1CCN(CC2Oc3ccccc3N(c3ccccc3)S2(=O)=O)CC1` (centres unmarked) [Example 141, 3-[(4-methylpiperazin-1-yl)methyl]-1-phenyl-1H-4,2,1-benzoxathiazine 2,2-dioxide], the inhibition at 6 µM was 30%.

In the case of `CNCC1Oc2ccccc2N(c2ccccc2)S1(=O)=O` (centres unmarked) [Example 144, 1-(2,2-dioxido-1-phenyl-1H-4,2,1-benzoxathiazin-3-yl)-N-methylmethanamine], the inhibition at 6 µM came to 53%.

The target of another assay is T1, human hNET. Put plainly: Functional norepinephrine reuptake assay, Procedure A (50,000 cells/well). It counts as cell-based. The note with it: MDCK-Net6 cells, 50,000 cells/well, 16 nM 3H-norepinephrine; read-out: Procecedure A NE Uptake IC50. How it is done: For screening, 25 μl aliquots of compound solution at a 1 μM or 10 μM final concentration was delivered directly to cells.
For IC50 determinations, stock compounds were prepared at 10 mM from powder. The stock solution was diluted according to compound testing range. Typically, the compound testing range was from 6 nM to 6 μM by half log dilutions. On the day of assay, 25 μl of compound solution at the specified concentrations were added to the plates containing cells. A DMSO stock of desipramine was prepared at 10 mM in DMSO and diluted for a final concentration of 20 μM to determine the non-specific reuptake.
MDCK-Net6 cells, stably transfected with human hNET (Pacholczyk, 1991), were maintained in growth media [high glucose DMEM (Gibco Cat. 11995), 10% FBS (dialyzed, heat-inactivated, Sigma, dialysed, heat inactivated, Lot# K0922 or equivalent) 1xPen/Strep, and 500 μg/ml G418 (Gibco Cat. 10131)]. Cells were plated at 300,000/T75 flask and cells split twice weekly.
Cells were plated at 50,000 cells/well (Procedure A) or 6,000 cells/well (Procedure B) on day 1 in BD Falcon Microtest 96-well sterile cell culture plates, Optilux White/Clear Bottom TC plate (VWR; # 62406-466 or equivalent) in growth media and maintained in a cell incubator (37° C., 5% CO2). On Day 2, cells were removed from the cell incubator and the growth media is replaced by 200 μl of assay buffer (25 mm HEPES 120 mM NaCL; 5 mM KCl; 2.5 mM CaCl2; 1.2 mM MgSO4; 2 mg/ml glucose (pH 7.4, 37° C.)) containing 0.2 mg/ml ascorbic acid and 1 μM parglyine. For screening, 25 μl of compound in 4% DMSO was added directly to each well and the plate was incubated for 5 minutes (37° C.). To initiate the norepinephrine reuptake, 16 nM (final concentration) of ^3H norepinephrine (specific activity; 40-80 Ci/mmol) in assay buffer was delivered in 25 μl aliquots to each well, and the plates were incubated for 5 min at 37° C. The reaction is aspirated from the plate and the cells washed with 250 μl of 50 mM Tris Buffer (4° C.). The plates were left to dry for 1 hour. The cells were lysed using 0.25 M NaOH solution then placed on a shake table and vigorously shaken for 10 minutes. After cell lysis, 100 μl of Microscint 20 (PerkinElmer; #87-051101) was added to the plates and the plates were sealed with film tape and replaced on the shake table for a minimum of 10 minutes. The plates were counted in a TopCount counter (PerkinElmer).
For screening single point determinations, each compound plate contained at least 3 control wells (maximum NE reuptake determinant) and 3 non-specific wells determined by adding 20 μM of desipramine (minimum NE reuptake determinant). Determination of active compounds was calculated using a Microsoft Excel spread sheet applying the following formula:
% inhibition=[1−((mean cpm test compound wells−mean cpm non-specific wells)/(mean cpm control wells−mean cpm non-specific wells))]×100
For IC50 determination, raw cpm values were generated in a data file from the TopCount counter. The data was organized using the Microsoft Excel and transferred into PRIZM graphing and statistical program, which calculated the estimated IC50 value. Calculation of IC50 values was made using non-linear regression analysis with a sigmoidal dose response with variable slope. The statistical program used wells containing ^3H norepinephrine only as the maximal NE reuptake determinant and wells containing ^3H norepinephrine plus 20 μM desipramine (AHR-9543) as the minimal NE reuptake determinant (non-specific determinant). Estimation of the IC50 value was completed on a log scale and the line was fit between the maximal and minimal NE reuptake values.
For the compound `CNCCC[C@]1(C)Cc2ccccc2N(c2ccccc2)S1(=O)=O` (single isomer, unassigned) [Example 9], the negative logarithm of the IC50 (pIC50) was 6.95.

For `NCCCC1Cc2ccccc2N(c2ccccc2)S1(=O)=O` (centres unmarked) [Example 2, 3-(2,2-dioxido-1-phenyl-3,4-dihydro-1H-2,1-benzothiazin-3-yl)propan-1-amine], the pIC50 was 6.63.

As for `CN(C)CCCC1Cc2ccccc2N(c2ccccc2)S1(=O)=O` (centres unmarked) [Example 3, 3-(2,2-dioxido-1-phenyl-3,4-dihydro-1H-2,1-benzothiazin-3-yl)-N,N dimethylpropan-1-amine], the negative-log IC50 (pIC50) was 6.32.

As to `CCNCCCC1Cc2ccccc2N(c2ccccc2)S1(=O)=O` (centres unmarked) [Example 4, 3-(2,2-dioxido-1-phenyl-3,4-dihydro-1H-2,1-benzothiazin-3-yl)-N-ethylpropan-1-amine], the negative logarithm of the IC50 (pIC50) was 5.73.

Take `CC(C)NCCCC1Cc2ccccc2N(c2ccccc2)S1(=O)=O` (centres unmarked) [Example 5, 3-(2,2-dioxido-1-phenyl-3,4-dihydro-1H-2,1-benzothiazin-3-yl)-N-isopropyl propan-1-amine]: the negative logarithm of the IC50 (pIC50) is 6.78.
